Earlier results on three molecules are cited in patent US11214591B2, “Enzyme compositions, steroid derivatives, enzyme inhibitors, and methods of making same for pharmaceutical applications” (BOARD OF REGENTS, THE UNIVERSITY OF TEXAS SYSTEM, priority 2018, dated 2022).

Structures are written as SMILES.

The conditions of data set [1]: male rats.
The conditions of data set [2]: in vivo.
For data set [3] the following is noted: in vivo. The source holds these as a separate data set.
The conditions of data set [4]: mice feeding study; bile acid composition of micelles.

Turning to `C[C@]12CC[C@H](O)CC1=CC(=O)[C@@H]1[C@@H]2CC[C@]2(C)C(=O)CC[C@@H]12` [7-Keto DHEA, 7-keto dehydroepiandrosterone], the “voluntary intake of ethanol” value in data set [1] was “decreased voluntary intake of ethanol”.

Regarding `CC(=O)O[C@H]1CC[C@@]2(C)C(=CC(=O)[C@@H]3[C@@H]2CC[C@]2(C)C(=O)CC[C@@H]32)C1` [7-keto DHEA-3OAc, 7-keto dehydroepiandrosterone-3-acetate], the PTSD symptoms result in data set [2] was “reduce post-traumatic stress disorder (PTSD) symptoms”. Further, in data set [3], the “resting metabolic rate associated with dieting” value is recorded as “reverse the resting metabolic rate associated with dieting”.

Turning to `C[C@H](CCC(=O)O)[C@H]1CC[C@H]2[C@@H]3[C@H](O)C[C@@H]4C[C@H](O)CC[C@]4(C)[C@H]3CC[C@]12C` [chenodeoxycholic acid], in data set [4], the cholesterol absorption was 60%.
